Data: patent US5763480A, “Inhibitors of cell-medicated disorders” (priority 1994, dated 1998)
Like-named read-outs stand apart in the source and are kept apart here.

Assays:
[1] = test system: cellular proton pump; experiment: Blocking of cellular proton pump by metal-chelate complexes / stopping of the block by chelating agents; conditions: for blocking of the cellular proton pump in combination with Tl or In: chelating agent combined with Tl or In
[2] = Solubility of Tl and In EDTA complexes versus halide salts in physiological saline; format: physicochemical; conditions: physiological saline / physiological solvents
Source text: The pH of the resulting solutions was then raised to pH 7.0 and filtered to achieve sterility. […] The solubility characteristics of these Tl and In complexes were compared to the solubility characteristics of the respective halogen salts.

[3] = test system: proton pump of the osteoclast ruffled membrane vesicles; format: biochemical; conditions: read-out: 50% effective concentration, inhibition of vesicle acidification, FIG. 3
Source text: The effect of the metal-EDTA complexes on the proton pump of isolated osteoclast ruffled membrane vesicles was studied. For the study, the isolation, preparation and assay of the acidifying ruffled membrane vesicles were accomplished according to the procedures of Blair et al., J. Cell. Biochem., 48, 401-410 (1992).
The y-axis indicates the acidification by the membranes in relation to the molar concentration of the test composition, as indicated on the x-axis.

[4] = test system: osteoclasts; experiment: Inhibition of osteoclast-mediated bone resorption in vitro (release of radiolabelled bone); format: cell-based, laying hens; conditions: read-out: 50% effective concentration, inhibition of bone resorption by osteoclasts in culture, FIG. 2, up to six days, labelled bone, 10,000 cells per well
Procedure: Osteoclasts were isolated from calcium-deprived, laying hens, and metabolically radiolabelled bone was prepared therefrom (Blair et al., J. Cell Biol., 102, 1164-1172 (1986)). These osteoclasts were cultured in 24 well dishes at 10,000 cells per well, to which were added labelled bone and test compounds. The culture supernatants were assayed for released radioactivity for up to six days after the addition of the labelled bone.
The y-axis indicates the percentage of the total radiolabelled bone that was released by osteoclast activity to the culture supernatant in response to varying the molar concentration (x-axis) of the various test compositions. […] The 50% effective concentrations of suramin and gallium nitrate were 700 nM and 2000 nM, respectively.

[5] = test system: bone resorption; conditions: cited from earlier work
[6] = test system: chloride channel and proton pump of ruffled membrane vesicles; experiment: Valinomycin reversal test distinguishing chloride channel and proton pump in ruffled membrane vesicles; format: biochemical; conditions: control measurement, 1 micromolar valinomycin
Procedure: Because both the chloride channel and the proton pump are present in the ruffled membrane vesicles, the inhibition of acidification that was observed was possibly due to effects on either or both of these transporters. The effects of these two transporters were distinguished in other experiments by noting and using the differential effects of valinomycin on the chloride channel and proton pump in the presence of 120 mM K^+. This drug relieves the build-up of membrane potential yet permits proton transport.

[7] = test system: osteoclast-mediated bone resorption; experiment: PTH stimulated bone resorption of rats in vivo, serum calcium (hypercalcemia model)
Procedure: The ability of the metal-EDTA complexes to inhibit osteoclast-mediated bone resorption was tested on two groups of experimental rats treated to provide a hypercalcemia model (according to the procedures of Jaeger et al., Am. J. Physiol., 252, E790-E798 (1987)) as compared to two groups of untreated control rats. Experimental rats were surgically parathyroidectomized, and the effectiveness of the parathyroidectomy was gauged by determining the subject rats' serum calcium levels 72 hours post-surgery. A fall in calcium observed at that time reflected the decrease of bone resorption resulting from the removal of the parathyroid glands and the consequent decrease in circulating parathyroid hormone (PTH), a regulator of extra-cellular Ca^++ concentration. […] Serum calcium levels were determined after a 24-hour fast on the third day after the last drug administration and again two weeks later.
All the animals in this study underwent the same two surgical procedures and received PTH via the implanted osmotic pump starting on day 3. […] After the two weeks were complete, serum calcium was determined again and compared to the earlier values and the controls. […]

[8] = test system: bone resorption; conditions: in vivo; cited from earlier work

O=C(O)CN(CCN(CC(=O)O)CC(=O)O)CC(=O)O [EDTA, ethylenediaminetetraacetic acid]
suitability for stopping the effect ([1]; metal is Tl or In): not a suitable chelating agent for stopping the effect

[Cl][Tl]([Cl])[Cl] [TlCl3]
solubility (in words) [2]: could not be prepared

[Tl] [Tl, thallium]
EC50 [3]: 30 µM

O=C(O)CN(CCOCCOCCN(CC(=O)O)CC(=O)O)CC(=O)O [EGTA, ethylene glycol bis (o-aminoethyl ether) N,N,N',N'-tetraacetic acid]
stopping of the proton pump-blocking effect by chelating agent ([1]; Ga(III)): stops the cellular proton pump-blocking effect
blocking of the cellular proton pump in combination with Tl or In [1]: ineffective

O=[N+]([O-])[O-].O=[N+]([O-])[O-].O=[N+]([O-])[O-].[Ga+3] [gallium nitrate]
EC50 [4]: 2 µM
adverse effects ([5]; gallium compound treatment): anemia, nausea and vomiting, and renal toxicity

O=C(O)CN(CC(=O)O)[C@@H]1CCCC[C@H]1N(CC(=O)O)CC(=O)O (relative stereo) [CDTA, trans-1,2-diaminocyclohexane-N,N,N',N'-tetraacetic acid]
stopping of the proton pump-blocking effect by chelating agent ([1]; In(III) and Tl(III)): stops the cellular proton pump-blocking effect
blocking of the cellular proton pump in combination with Tl or In [1]: ineffective

CC(C)[C@@H]1NC(=O)[C@H](C)OC(=O)[C@@H](C(C)C)NC(=O)[C@@H](C(C)C)OC(=O)[C@H](C(C)C)NC(=O)[C@H](C)OC(=O)[C@@H](C(C)C)NC(=O)[C@@H](C(C)C)OC(=O)[C@H](C(C)C)NC(=O)[C@H](C)OC(=O)[C@@H](C(C)C)NC(=O)[C@@H](C(C)C)OC1=O [valinomycin]
recovery of acidification after chloride channel inhibition [6]: recovered when 1 micromolar valinomycin was added

PTH: synthetic PTH (BPTH 1-34 (i.e., rat peptide 1-34), purchased from Bachem California) (AVSEIQLMHNLGKHLASVERMQWLRKKLQDVHNF; Parathyroid hormone; UniProt P04089 32-65, looked up, fragment)
serum calcium (in words) ([7]; PTH without Tl-EDTA or In-EDTA, with or without parathyroid gland): elevated calcium concentrations
serum calcium level relative to pretreatment levels ([7]; constant PTH by subcutaneous osmotic pump, parathyroidectomized rats): 150%

O=P(O)(O)C(Cl)(Cl)P(=O)(O)O [clodronate]
adverse effects [8]: development of acute leukemia
efficacy on bone resorption and bone disease [8]: effective not only in Paget's disease, but also in the treatment of hypercalcemia and osteolytic bone disease

O=C(O)CN(CCN(CC(=O)O)CC(=O)O)CCN(CC(=O)O)CC(=O)O [DPTA, diethylenetriaminepentaacetic acid]
stopping of the proton pump-blocking effect by chelating agent ([1]; In(III) and Tl(III)): stops the cellular proton pump-blocking effect
blocking of the cellular proton pump in combination with Tl or In [1]: ineffective

[Al] [Aluminum]
effect on bone calcium loss / bone resorption ([5]; gallium nitrate in humans, aluminum in accidental poisoning): inhibit bone resorption

CC(O)(P(=O)(O)O)P(=O)(O)O [etidronate]
adverse effects [8]: impaired mineralization and thus, paradoxically, increased bone fragility
efficacy on bone resorption and bone disease [8]: effective inhibitor of bone resorption

[Ga] [Ga, gallium]
EC50 [3]: 300 µM

Cc1ccc(C(=O)Nc2ccc(S(=O)(=O)O)c3cc(S(=O)(=O)O)cc(S(=O)(=O)O)c23)cc1NC(=O)c1cccc(NC(=O)Nc2cccc(C(=O)Nc3cc(C(=O)Nc4ccc(S(=O)(=O)O)c5cc(S(=O)(=O)O)cc(S(=O)(=O)O)c45)ccc3C)c2)c1 [suramin]
EC50 ([4]; Osteoclast, 144 h): 0.7 µM
